From patent publication US20070191396A1, “Fungicidal mixtures” (BASF Aktiengesellschaft, priority 2004, published 2007) come the findings set out here.

This assay has as its system Pyrenophora teres. Kind of assay: Activity against net blotch of barley caused by Pyrenophora teres, 1 day protective application. Type of assay: in vivo. Conditions: individual active compound, barley seedlings "Hanna", assessed after 6 days. On the procedure: The active compounds, separately, were prepared as a stock solution comprising 25 mg of active compound which was made up to 10 ml using a mixture of acetone and/or DMSO and the emulsifier Uniperol® EL (wetting agent having an emulsifying and dispersing action based on ethoxylated alkylphenols) in a ratio by volume of solvent/emulsifier of 99:1. The mixture was then made up to 100 ml with water. The active compounds or mixtures were diluted or mixed with water to the stated concentration.
Activity against net blotch of barley caused by Pyrenophora teres, 1 day protective application
Leaves of potted barley seedlings of the “Hanna” cultivar were sprayed to runoff point with an aqueous suspension having the concentration of active compound stated below. 24 hours after the spray coating had dried on, the test plants were inoculated with an aqueous spore suspension of Pyrenophora [syn. Drechslera] teres, the net blotch pathogen. […] After 6 days, the extent of the development of the disease was determined visually in % infection of the total leaf area.
The visually determined percentages of infected leaf areas were converted into efficacies in % of the untreated control:
The efficacy (E) is calculated as follows using Abbot's formula: E=(1−[…] )·100 α corresponds to the fungal infection of the treated plants in % and β corresponds to the fungal infection of the untreated (control) plants in % […]

For the molecule `CC1CCN(c2c(-c3c(F)cc(F)cc3F)c(Cl)nc3ncnn23)CC1` [I, 5-chloro-7-(4-methylpiperidin-1-yl)-6-(2,4,6-trifluorophenyl)[1,2,4]triazolo[1,5-a]pyrimidine], the “Efficacy in % of the untreated control” value is, setting by setting: (1.25 ppm in the spray liquor) 55 % of the untreated control; (5 ppm in the spray liquor) 78 % of the untreated control.
